# Measurements reported in PubChem BioAssay (NCI).
#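 Here, GI50 denotes the concentration required for 50% inhibition of growth. TGI: concentration producing complete growth inhibition.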
# Legend:
# Experiment in all cases: DTP human tumour cell line panel, 384-well format
# 786-0 renal = system: 786-0 renal
# A498 renal = system: A498 renal
# A549 NSCLC = system: A549 NSCLC
# ACHN renal = system: ACHN renal
# BT-549 breast = system: BT-549 breast
# CAKI-1 renal = system: CAKI-1 renal
# EKVX NSCLC = system: EKVX NSCLC
# HCT-15 colon = system: HCT-15 colon
# HOP-62 NSCLC = system: HOP-62 NSCLC
# HOP-92 NSCLC = system: HOP-92 NSCLC
# HT29 colon = system: HT29 colon
# IGROV1 ovarian = system: IGROV1 ovarian
# K-562 leukemia = system: K-562 leukemia
# M14 melanoma = system: M14 melanoma
# MALME-3M melanoma = system: MALME-3M melanoma
# MCF7 breast = system: MCF7 breast
# MDA-MB-231 breast = system: MDA-MB-231 breast
# NCI-H226 lung = system: NCI-H226 lung
# NCI-H23 lung = system: NCI-H23 lung
# NCI-H322M lung = system: NCI-H322M lung
# NCI-H460 NSCLC = system: NCI-H460 NSCLC
# NCI/ADR-RES ovarian = system: NCI/ADR-RES ovarian
# OVCAR-3 ovarian = system: OVCAR-3 ovarian
# OVCAR-4 ovarian = system: OVCAR-4 ovarian
# OVCAR-5 ovarian = system: OVCAR-5 ovarian
# OVCAR-8 ovarian = system: OVCAR-8 ovarian
# PC-3 prostate = system: PC-3 prostate
# RXF 393 renal = system: RXF 393 renal
# SF-268 CNS = system: SF-268 CNS
# SF-295 CNS = system: SF-295 CNS
# SF-539 CNS = system: SF-539 CNS
# SK-MEL-28 melanoma = system: SK-MEL-28 melanoma
# TK-10 renal = system: TK-10 renal
# UACC-257 melanoma = system: UACC-257 melanoma
# UACC-62 melanoma = system: UACC-62 melanoma
# UO-31 renal = system: UO-31 renal
structure (smiles),measurement,setting,value
CC[C@]1(O)C[C@H]2CN(CCc3c([nH]c4ccccc34)[C@@](C(=O)OC)(c3cc4c(cc3OC)N(C=O)[C@H]3[C@@](O)(C(=O)OC)[C@H](OC(C)=O)[C@]5(CC)C=CCN6CC[C@]43[C@@H]65)C2)C1,GI50,786-0 renal,14.3 nM
same,TGI,786-0 renal,48100 nM
same,GI50,A498 renal,< 16.3 nM
same,TGI,A498 renal,844 nM
same,GI50,A549 NSCLC,34.6 nM
same,GI50,ACHN renal,262 nM
same,TGI,ACHN renal,> 95900 nM
same,TGI,BT-549 breast,32.9 nM
same,GI50,CAKI-1 renal,30.4 nM
same,TGI,CAKI-1 renal,18100 nM
same,GI50,EKVX NSCLC,34.2 nM
same,TGI,EKVX NSCLC,> 91800 nM
same,GI50,HCT-15 colon,72 nM
same,TGI,HCT-15 colon,1310 nM
same,TGI,HOP-62 NSCLC,2330 nM
same,GI50,HOP-92 NSCLC,< 23.2 nM
same,TGI,HOP-92 NSCLC,41100 nM
same,TGI,HT29 colon,36200 nM
same,GI50,IGROV1 ovarian,< 27.3 nM
same,TGI,IGROV1 ovarian,> 35600 nM
same,TGI,K-562 leukemia,< 10.8 nM
same,TGI,M14 melanoma,17800 nM
same,TGI,MALME-3M melanoma,29300 nM
same,TGI,MCF7 breast,4320 nM
same,TGI,MDA-MB-231 breast,> 93800 nM
same,GI50,NCI-H226 lung,39.9 nM
same,TGI,NCI-H226 lung,> 84900 nM
same,TGI,NCI-H23 lung,49.9 nM
same,GI50,NCI-H322M lung,34 nM
same,TGI,NCI-H460 NSCLC,13.1 nM
same,GI50,NCI/ADR-RES ovarian,1870 nM
same,TGI,NCI/ADR-RES ovarian,4570 nM
same,TGI,OVCAR-3 ovarian,< 11 nM
same,GI50,OVCAR-4 ovarian,1400 nM
same,GI50,OVCAR-5 ovarian,44.2 nM
same,GI50,OVCAR-8 ovarian,< 12.1 nM
same,TGI,OVCAR-8 ovarian,47 nM
same,GI50,PC-3 prostate,< 10.5 nM
same,TGI,PC-3 prostate,> 61200 nM
same,TGI,RXF 393 renal,78100 nM
same,TGI,SF-268 CNS,20300 nM
same,GI50,SF-295 CNS,< 14.2 nM
same,TGI,SF-295 CNS,< 23.1 nM
same,TGI,SF-539 CNS,< 12.2 nM
same,TGI,SK-MEL-28 melanoma,56200 nM
same,GI50,TK-10 renal,54.5 nM
same,TGI,UACC-257 melanoma,20200 nM
same,TGI,UACC-62 melanoma,26000 nM
same,GI50,UO-31 renal,446 nM
same,TGI,UO-31 renal,> 84800 nM
